This note sets out measurements from ChEMBL document CHEMBL1201862, “PubChem BioAssay data set” (2004).

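Dose response: 5 concentrations. Exposure: 48 h. Format: 96-well plates. Endpoint: linear interpolation; highest concentration if not reached. GI50 marks 50% less growth.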 Calls of active or inactive are those of the source. Cut-off read from the data, not from the text of the source: active = GI50 up to about 1.1 µM and inactive = higher.

What all share (assay): NCI-60 cell line screen, 48 h
For assay [1], the system named is A549.
Assay [2] concerns EKVX.
The test system of assay [3] is SF-295.
For assay [4], the system named is HT-29.
The subject of assay [5] is SNB-19.
Assay [6] deals with HOP-62.
Assay [7] concerns K562.
The test system of assay [8] is HCT-15.
The test system of assay [9] is OVCAR-8.
In assay [10] the test system is HL-60.
Assay [11] has as its system SK-MEL-5.
Assay [12] deals with NCI-H522.
Assay [13] deals with UO-31.
Assay [14] concerns KM12.
Assay [15] deals with Malme-3M.
In assay [16] the test system is SF-268.

Regarding `Cc1c(C#N)c(=O)[nH]c(=O)n1CCN1CCN(C(=O)NCCCCCCNC(=O)N2CCN(CCn3c(C)c(C#N)c(=O)[nH]c3=O)CC2)CC1`, the GI50 in assay [1], in assay [2], in [3], in [4], in assay [5] and in [6] was > 100 µM (inactive) in each case. Moreover, the GI50 was > 100 µM (inactive) in assay [7]; > 100 µM in [8]; > 100 µM (inactive) in assay [9]; > 100 µM (inactive) in [10]; > 100 µM (inactive) in assay [11].

For `CCCCNC(=S)Nn1c(-c2ccccc2)nc2ccccc2c1=O`, the GI50 is 86.3 µM (inactive) in assay [12]; > 100 µM (inactive) in [1]; > 100 µM (inactive) in assay [3]; 68.5 µM (inactive) in assay [4]; 76.9 µM (inactive) in assay [13]; > 100 µM (inactive) in [6]. Further, the GI50 in [7] is 67.1 µM (inactive); in [14] it was > 100 µM (inactive); in [15] it was > 100 µM (inactive); in assay [16], > 100 µM (inactive); in assay [8], > 100 µM; in assay [9], > 100 µM (inactive). Besides, the GI50 is 25.7 µM (inactive) in assay [10] and > 100 µM (inactive) in assay [11].

Regarding `C[Si](C)(C)/C=C/CCC(C=O)(CCCl)c1ccccc1` (centres undefined), the GI50 is 13.9 µM (inactive) in assay [12]; 23.4 µM (inactive) in [1]; 26 µM (inactive) in [2]; 21.1 µM (inactive) in [3]; 14.6 µM (inactive) in assay [4]; 42.7 µM (inactive) in assay [5]. For the same compound, the GI50 is 44.2 µM (inactive) in assay [13]; 25 µM (inactive) in assay [7]; 26.7 µM (inactive) in [14]; 17.6 µM (inactive) in [15]; 31.7 µM (inactive) in assay [16]; 19.5 µM in [8]. The values for the GI50 in [9], in assay [10] and in assay [11] were 27.7 µM (inactive), 6.98 µM (inactive) and 17.8 µM (inactive), respectively.

`O=C(Nc1ccc(F)cc1)C(=O)C(C1OC(=O)c2ccccc21)[N+](=O)[O-]` (centres undefined): the GI50 in [1], in assay [2], in assay [3], in [4], in [5] and in assay [13] was > 100 µM (inactive) each time. The GI50 is > 100 µM (inactive) in assay [6]; > 100 µM (inactive) in assay [7]; > 100 µM (inactive) in [14]; > 100 µM (inactive) in assay [15]; > 100 µM (inactive) in assay [16]; > 100 µM in assay [8]. The GI50 in assay [9], in assay [10] and in assay [11] was > 100 µM (inactive) each time.

Regarding `COc1ccccc1NC(=O)C1=C(C)NC(C)=C(C(=O)Nc2ccccc2OC)C1c1ccc(C)cc1`, the GI50 was 60.7 µM (inactive) in assay [12]; 47.6 µM (inactive) in [2]; 68.4 µM (inactive) in [3]; > 100 µM (inactive) in assay [4]; > 100 µM (inactive) in assay [5]; 43 µM (inactive) in assay [13]. Moreover, the GI50 was > 100 µM (inactive) in assay [6]; 18.2 µM (inactive) in [7]; 43 µM (inactive) in assay [14]; > 100 µM (inactive) in assay [15]; > 100 µM (inactive) in assay [16]; 33.1 µM in assay [8]. In addition, the GI50 in assay [9] was 58.9 µM (inactive); in assay [11] it was 16.9 µM (inactive).
